For test [1], the system named is MPTP lesioning of dopaminergic neurons in mice. Kind of test: MPTP Model of Parkinson's Disease. The settings on record: test compound 4 mg/kg s.c.; MPTP 30 mg/kg i.p. for 5 days; CD1 mice; striatum, 18 days following MPTP. The test is classed as in vivo. As to the method:
MPTP lesioning of dopaminergic neurons in mice was used as an animal model of Parkinson's Disease. Four week old male CD1 white mice were dosed i.p. with 30 mg/kg of MPTP for 5 days. Test compounds (4 mg/kg), or vehicle, were administered s.c. along with the MPTP for 5 days, as well as for an additional 5 days following cessation of MPTP treatment. At 18 days following MPTP treatment, the animals were sacrificed and the striata were dissected and homogenized. Immunostaining was performed on saggital and coronal brain sections using anti-tyrosine hydroxylase […] to quantitate survival and recovery of dopaminergic neurons.
The results of these experiments are presented in TABLE IV under the column “% TH recovery”.

Test [2] has as its system cultured chick sensory neurons from dorsal root ganglia. Kind of test: Chick Dorsal Root Ganglion Cultures and Neurite Outgrowth. The test is classed as cell-based. The conditions noted are these: for EC50: neurite outgrowth, 48 hours after drug treatment, from dose-response curves, read-out: ED50 (the source's name). As for the experimental part: Dorsal root ganglia were dissected from chick embryos of ten day gestation. Whole ganglion explants were cultured on thin layer Matrigel-coated 12 well plates with Liebovitz L15 plus high glucose media supplemented with 2 mM glutamine and 10% fetal calf serum, and also containing 10 μm cytosine β-D arabinofuranoside (Ara C) at 37° C. in an environment containing 5% CO2. Twenty-four hours later, the DRGs were treated with various concentrations of nerve growth factor, immunophilin ligands or combinations of NFG plus drugs. Forty-eight hours after drug treatment, the ganglia were visualized under phase contrast or Hoffman Modulation contrast with a Zeiss Axiovert inverted microscope. Photomicrographs of the explants were made, and neurite outgrowth was quantitated. Neurites longer than the ORG diameter were counted as positive, with total number of neurites quantitated per each experimental condition. Three to four DRGs are cultured per well, and each treatment was performed in duplicate.
Dose-response curves were generated from which ED50 values were obtained.

Here are results for 17 molecules from patent US6984639B2, “Heterocyclic ketone and thioester compounds and uses” (GPI NIL Holdings, Inc., priority 1996, dated 2006).

Like-named read-outs stand apart in the source and are kept apart here.

As to “2-Phenyl-1-ethyl (2S)-1-(3,3-dimethyl-1,2-dioxopentyl)-2-pyrrolidinecarbothioate [Compound 9]”, the “% TH recovery” value in test [1] was found to be 61%. For the same molecule, in test [2], the EC50 came out at 0.5 nM.

As for `CCC(C)(C)C(=O)C(=O)N1CCCC1C(=O)SCc1csc2ccccc12` (stereo not shown) [Compound 11], the “% TH recovery” value in test [1] was determined as 53%. For the same molecule, the EC50 in test [2] came out at 0.36 nM.

As to “2-Phenyl-1-ethyl 1-(2-phenyl-1,2-dioxoethyl)-2-piperidinecarbothioate [Compound 14]”, the “% TH recovery” value in test [1] is reported as 48%. In addition, the EC50 in test [2] was found to be 0.9 nM.

As to “2-Phenyl-1-ethyl 1-(3,3-dimethyl-1,2-dioxopentyl)-2-piperidinecarbothioate [Compound 10]”, the “% TH recovery” value in test [1] came to 54%. The “neurite outgrowth in sensory neurons (photomicrograph)” value in test [2] (10 pM), in test [2] (1 nM) and in test [2] (100 nM) was “promoting neurite outgrowth” each time. Besides, the EC50 in test [2] came to 0.8 nM.

For “2-Phenyl-1-ethyl (2S)-1-(2-cyclohexyl-1,2-dioxoethyl)-2-pyrrolidinecarbothioate [Compound 12]”, in test [2], the EC50 was 0.025 nM.

As to “2,2-Diphenylethyl (2S)-1-(3,3-dimethyl-2-oxopentanoyl)-2-pyrrolidinecarbothioate [Compound 44]”, the “% TH recovery” value in test [1] amounted to 28%.

On to `O=C(C(=O)N1CCC[C@H]1C(=O)CCCCc1ccccc1)C1CCCCC1` [Compound 62, (2S)-2-(1-Oxo-5-phenyl)pentyl-1-(2-Cyclohexyl-1,2-dioxoethyl)pyrrolidine], for which the “% TH recovery” value in test [1] worked out at 38%. The EC50 in test [2] (Gallus gallus, Neuron) was 5 nM.

Consider “3,3-Diphenylpropyl 1-(3,3-dimethyl-2-oxopentanoyl)-2-piperidinecarbothioate [Compound 46]”, for which the “% TH recovery” value in test [1] was 62%.

On to “3-(1-Naphthyl)-1-propyl (2S)-1-(3,3-dimethyl-2-oxopentanoyl)-2-pyrrolidinecarbothioate [Compound 43]”, for which the “% TH recovery” value in test [1] is 50%.

In the case of “3,3-Diphenyl-1-propyl (2S)-1-(3,3-dimethyl-1,2-dioxopentyl)-2-pyrrolidinecarbothioate [Compound 32]”, the “% TH recovery” value in test [1] was determined as 56%.

As for “3-(1-Naphthyl)-1-propyl 1-(3,3-dimethyl-1,2-dioxopentyl)piperidine-2-carbothioate [Compound 40]”, the “% TH recovery” value in test [1] was found to be 25%.

In the case of “3-Phenyl-1-propyl (2S)-1-(2-cyclohexyl-1,2-dioxoethyl)-2-pyrrolidinecarbothioate [Compound 28]”, the “% TH recovery” value in test [1] is 52%.

Regarding `CCC(C)(C)C(=O)C(=O)N1CCC[C@H]1C(=O)CCCC(c1ccc(F)cc1)c1ccc(F)cc1` [Compound 66, (2S)-2-[5,5-di(4-Fluorophenyl)pentanoyl]-1-(3,3 dimethyl-1,2-pentanedione)pyrrolidine], the “% TH recovery” value in test [1] was 25%.

As to `CC(C)(C)C(=O)C(=O)N1CCCCC1C(=O)C(CCc1ccccc1)CCc1ccccc1` (stereo not shown) [Compound 65], the “% TH recovery” value in test [1] worked out at 23%.

With “3-(para-Methoxyphenyl)-1-propyl (2S)-1-(3,3-dimethyl-1,2-dioxopentyl)-2-pyrrolidinecarbothioate [Compound 34]”, the “% TH recovery” value in test [1] is given as 37.32%. Besides, the EC50 in test [2] is 0.011 nM.

In the case of “4-Phenyl-1-butyl (2S)-1-(3,3-dimethyl-1,2-dioxopentyl)-2-pyrrolidinecarbothioate [Compound 30]”, the “% TH recovery” value in test [1] is 48%. In addition, the EC50 in test [2] is 0.9 nM.

With `CCC(C)(C)C(=O)C(=O)N1CCC[C@H]1C(=O)CCCCc1ccccc1` [Compound 1, (2S)-3,3-dimethyl-1-[2-(5-phenylpentanoyl)pyrrolidinyl]pentane-1,2-dione], the “% TH recovery” value in test [1] turned out to be 23%. Also, the “neurite outgrowth in sensory neurons (photomicrograph)” value in test [2] (10 pM), in test [2] (1 nM) and in test [2] (1 μM) was “promoting neurite outgrowth” each time. Also, the EC50 in test [2] was determined as 0.4 nM.
